Results taken from US7241799B2, “Cannabimimetic indole derivatives” (University of Connecticut, priority 1999, dated 2007).
pKi: −log10 of the molar value. Read-outs that look alike come from different tables or passages of the source.

Tests used:
CB2 receptor = target: T1, CB2 receptor (Mus musculus, UniProt P47936); experiment: CB2 receptor binding, [3H] CP-55,940 displacement, mouse spleen membranes; details: for Ki: mouse spleen membranes, [3H] CP-55,940, read-out: Kl CB2 (converted); for selectivity for the CB2 receptor: binding selectivity CB2 versus CB1, from the results in the TABLES
T1 construct: membranes were prepared from frozen mouse spleen; from tissue; host or cells: mouse spleen
Protocol: (§1) The materials were tested for CB2 receptor binding affinity and for CB1 receptor affinity (to determine selectivity for the CB2 receptor). As used herein, “binding affinity” is represented by the IC50 value which is the concentration of an analog required to occupy the 50% of the total number (Bmax) of the receptors. The lower the IC50 value the higher the binding affinity.
(§2) The treated membranes were subsequently used in the binding assay described below. Approximately 30 μg of membranes were incubated in silanized 96-well microtiter plate with TME containing 0.1% essentially fatty acid-free bovine serum albumin (BSA), 0.8 nM [^3H] CP-55,940, and various concentrations of test materials at […] for 1 hour. The samples were filtered using Packard Filtermate 196 and Whatman GF/C filterplates and washed with wash buffer (TME) containing 0.5% BSA. Radioactivity was detected using MicroScint 20 scintillation cocktail added directly to the dried filterplates, and the filterplates were counted using a Packard Instruments Top-Count. Nonspecific binding was assessed using 100 nM CP-55,940. Data collected from three independent experiments performed with duplicate determinations was normalized between 100% and 0% specific binding for [^3H] CP-55,940, determined using buffer and 100 nM CP-55,940. The normalized data was analyzed using a 4-parameter nonlinear logistic equation to yield IC50 values. Data from at least two independent experiments performed in duplicate was used to calculate IC50 values which were converted to Ki values using the assumptions of Cheng et al, Relationship Between the Inhibition Constant (Ki) and the concentration of Inhibitor which causes 50% Inhibition (IC50) of an Enzymatic Reaction, Biochem. Pharmacol., 22, 3099–3102, (1973), which is incorporated by reference herein.
For the CB2 receptor binding studies, membranes were prepared from frozen mouse spleen essentially according to the procedure of P. R. Dodd et al, A Rapid Method for Preparing Synaptosomes: Comparison with Alternative Procedures, Brain Res., 226, 107–118 (1981) which is incorporated by reference herein. Silanized centrifuge tubes were used throughout to minimize receptor loss due to adsorption. The CB2 binding assay was conducted in the same manner as for the CB1 binding assay. The binding affinities (Ki) were also expressed in nanomoles (nM).

CB1 receptor = target: T2, CB1 receptor (Rattus norvegicus, UniProt P20272); experiment: CB1 receptor binding, [3H] CP-55,940 displacement, rat forebrain membranes; details: for pKi: rat forebrain membranes, 0.8 nM [3H] CP-55,940, read-out: Kl CB1
T2 construct: membranes were prepared from rat forebrain membranes; from tissue; host or cells: rat forebrain
Protocol: as §1
For the CB1 receptor binding studies, membranes were prepared from rat forebrain membranes according to the procedure of P. R. Dodd et al, A Rapid Method for Preparing Synaptosomes: Comparison with Alternative Procedures, Brain Res., 107–118 (1981). The binding of the novel analogues to the CB1 cannabinoid receptor was assessed as described in W. A. Devane et al, Determination and Characterization of a Cannabinoid Receptor in a Rat Brain, Mol. Pharmacol., 34, 605–613 (1988) and A. Charalambous et al, 5′-azido Δ^8 THC: A Novel Photoaffinity Label for the Cannabinoid Receptor, J. Med. Chem., 35, 3076–3079 (1992) with the following changes. The above articles are incorporated by reference herein.
Membranes, previously frozen at −80° C., were thawed on ice. To the stirred suspension was added three volumes of TME (25 mM Tris-HCl buffer, 5 mM MgCl2 and 1 mM EDTA) at a pH 7.4. The suspension was incubated at 4° C. for 30 min. At the end of the incubation, the membranes were pelleted and washed three times with TME.
as §2

T1 sequence (P47936 whole entry): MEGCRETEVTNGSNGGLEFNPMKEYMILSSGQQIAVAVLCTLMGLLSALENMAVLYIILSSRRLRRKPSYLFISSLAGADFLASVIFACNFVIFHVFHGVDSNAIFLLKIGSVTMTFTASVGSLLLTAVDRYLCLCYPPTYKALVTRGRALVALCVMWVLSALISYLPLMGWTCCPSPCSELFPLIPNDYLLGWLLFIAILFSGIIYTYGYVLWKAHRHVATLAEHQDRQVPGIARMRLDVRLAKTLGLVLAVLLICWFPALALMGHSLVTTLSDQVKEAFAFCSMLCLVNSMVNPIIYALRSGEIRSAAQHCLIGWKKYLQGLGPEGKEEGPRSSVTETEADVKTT
T2 sequence (P20272 whole entry): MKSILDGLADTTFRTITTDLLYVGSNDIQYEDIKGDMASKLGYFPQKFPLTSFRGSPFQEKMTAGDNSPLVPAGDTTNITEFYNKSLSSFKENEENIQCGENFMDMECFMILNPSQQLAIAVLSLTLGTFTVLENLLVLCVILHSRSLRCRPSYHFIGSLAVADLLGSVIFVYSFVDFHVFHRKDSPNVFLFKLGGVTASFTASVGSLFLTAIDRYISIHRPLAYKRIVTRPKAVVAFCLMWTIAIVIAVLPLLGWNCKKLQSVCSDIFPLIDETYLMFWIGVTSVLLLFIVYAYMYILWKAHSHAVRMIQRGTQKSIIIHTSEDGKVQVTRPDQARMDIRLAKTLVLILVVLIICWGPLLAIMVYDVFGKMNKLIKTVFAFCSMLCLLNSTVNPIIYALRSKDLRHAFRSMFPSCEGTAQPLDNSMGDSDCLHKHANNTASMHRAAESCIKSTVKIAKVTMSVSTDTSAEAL

Structure (SMILES) | Ki (CB2 receptor; TABLE 1, racemic samples) [nM] | pKi (CB1 receptor; TABLE 1, racemic samples) | Ki (CB2 receptor; TABLE 2) [nM] | pKi (CB1 receptor; TABLE 2) | selectivity for the CB2 receptor (CB2 receptor) | selectivity for the CB1 receptor (CB1 receptor; binding selectivity CB1 versus CB2, from the results in the TABLES)
CN1CCCCC1Cn1cc(C(=O)c2ccc(I)c3ccccc23)c2ccc(N=[N+]=[N-])cc21 (racemic) [AM2212] | 2.9 | 7.51 |  |  |  | 
CN1CCCCC1Cn1cc(C(=O)c2cccc3ccccc23)c2ccc([N+](=O)[O-])cc21 (racemic) [AM1218] | 3.98 | 7.95 |  |  |  | 
[N-]=[N+]=Nc1ccc(C(=O)c2cn(CCCCI)c3ccccc23)c2ccccc12 [AM2213] |  |  | 30 | 8.52 |  | 
Cc1c(C(=O)c2ccccc2I)c2ccccc2n1CCCCCF [AM2225] |  |  | 3.8 | 8.22 |  | 
O=C(c1cccc2ccccc12)c1cn(CCCI)c2ccccc12 [AM1292] |  |  | 18.1 | 8.51 |  | 
Nc1ccc2c(C(=O)c3cccc4ccccc34)cn(CCCCCO)c2c1 [AM1237] |  |  | 244 | 6.08 | high selectivity for the CB2 receptor | 
O=C(c1ccc([N+](=O)[O-])c2ccccc12)c1cn(CCCCI)c2ccccc12 [AM2210] |  |  | 11.3 | 8.74 |  | 
Cc1c(C(=O)c2ccccc2I)c2ccccc2n1CCCCCN=C=S [AM2230] |  |  | 29.5 | 6.71 | high selectivity for the CB2 receptor | 
Cc1c(C(=O)c2ccccc2I)c2ccccc2n1CCCCCO [AM690] |  |  | 1970 | 5.31 |  | 
O=C(c1cccc2ccccc12)c1cn(CCCCI)c2ccccc12 [AM1288] |  |  | 10.5 | 8.89 |  | high selectivity for the CB1 receptor
O=C(c1cccc2ccccc12)c1cn(CCCN=C=S)c2ccccc12 [AM1294] |  |  | 237 | 6.55 |  | 
CCCCCn1c(C)c(C(=O)c2ccc(N(C)C)c3ccccc23)c2ccccc21 [AM1256] |  |  | 18.6 | 8.32 |  | 
CN1CCCCC1Cn1cc(C(=O)c2cccc3ccccc23)c2ccc(N=C=S)cc21 (racemic) [AM1217] | 81.5 | 6.59 |  |  |  | 
CCCCCn1cc(C(=O)c2cc(I)ccc2I)c2ccccc21 [AM1206] |  |  | 150 | 6.98 |  | 
O=C(c1ccccc1I)c1cn(CCCCCI)c2ccccc12 [AM698] |  |  | 315 | 6.87 |  | 
Cc1c(C(=O)c2ccccc2I)c2ccc(N=C=S)cc2n1CC1CCCCN1C (racemic) [AM1216] | 25.2 | 6.68 |  |  |  | 
CC(=O)OCCCCn1cc(C(=O)c2cccc3ccccc23)c2ccccc21 [AM1282] |  |  | 101 | 6.87 |  | 
O=C(c1cccc2ccccc12)c1cn(CCCCCO)c2ccccc12 [AM2202] |  |  | 111 | 7.48 |  | 
